This is an account of results in PMC6662683, “Identification of the Catechin Uptake Transporter Responsible for Intestinal Absorption of Epigallocatechin Gallate in Mice” (Scientific Reports, 2019).

The target of data set [1] is T1, diastrophic dysplasia sulfate transporter (DTDST) (Mus musculus, UniProt Q62273).
T1 construct: gene Slc26a2; full open reading frame from mouse ileal epithelial cDNA, C-terminal FLAG tag, stably expressed in CHO-K1 cells (pcDNA3.1(+))
T1 sequence (Q62273 1-739): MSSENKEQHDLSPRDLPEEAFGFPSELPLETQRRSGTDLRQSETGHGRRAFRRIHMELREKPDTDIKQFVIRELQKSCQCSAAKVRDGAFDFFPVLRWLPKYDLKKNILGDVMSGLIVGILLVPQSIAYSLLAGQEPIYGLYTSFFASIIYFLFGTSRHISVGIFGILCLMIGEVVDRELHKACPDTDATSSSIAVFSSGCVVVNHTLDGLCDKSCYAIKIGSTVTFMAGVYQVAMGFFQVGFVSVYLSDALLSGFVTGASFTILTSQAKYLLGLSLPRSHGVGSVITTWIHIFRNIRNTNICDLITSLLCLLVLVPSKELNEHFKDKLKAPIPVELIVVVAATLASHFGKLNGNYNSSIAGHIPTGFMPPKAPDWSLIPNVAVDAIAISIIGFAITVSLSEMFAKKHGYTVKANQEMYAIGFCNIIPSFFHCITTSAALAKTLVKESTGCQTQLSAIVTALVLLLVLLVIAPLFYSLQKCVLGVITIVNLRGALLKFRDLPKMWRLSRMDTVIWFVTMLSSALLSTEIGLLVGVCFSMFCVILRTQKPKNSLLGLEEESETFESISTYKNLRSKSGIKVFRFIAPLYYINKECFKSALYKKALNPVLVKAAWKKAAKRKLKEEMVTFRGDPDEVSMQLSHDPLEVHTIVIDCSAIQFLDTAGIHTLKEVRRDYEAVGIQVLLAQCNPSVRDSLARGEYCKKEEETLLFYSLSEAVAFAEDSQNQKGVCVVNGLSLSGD
The experiment in a line: inhibition of EGCg uptake into stably expressing CHO-K1 cells, LC-MS/MS. The data set is classed as cell-based. The note with it: 100 μM DIDS 1 h before EGCg; 500 μM EGCg, 30 min (Figure 4 legend; methods give 100 μM EGCg); pH 6.0, 37 °C.

Substrate in data set [2]: O=C(O[C@@H]1Cc2c(O)cc(O)cc2O[C@@H]1c1cc(O)c(O)c(O)c1)c1cc(O)c(O)c(O)c1
The experiment in a line: EGCg uptake into stably expressing CHO-K1 cells, mock subtracted, LC-MS/MS. The data set is classed as cell-based, Mus musculus. The settings on record: Hanks' balanced salt solution pH 6.0, 37 °C, 30 min, 1-1000 μM EGCg.

As to `O=S(=O)(O)c1cc(N=C=S)ccc1/C=C/c1ccc(N=C=S)cc1S(=O)(=O)O` [4,4′-diisothiocyano-2,2′-stilbenedisulfonic acid], the “inhibition of EGCg uptake into stably expressing CHO-K1 cells, LC-MS/MS” value in data set [1] is “compared with mock cells was nullified in the presence of the DTDST inhibitor DIDS”.

B1: diastrophic dysplasia sulfate transporter (DTDST) (Mus musculus) (protein)
chain: T1 sequence (Q62273 1-739)
notes: full open reading frame from mouse ileal epithelial cDNA, C-terminal FLAG tag, stably expressed in CHO-K1 cells (pcDNA3.1(+))
For orientation: Km means the concentration of substrate that gives half-maximal velocity. With B1, in data set [2], the Km was 576 ± 244 µM.
